The values that follow come from patent publication US20100261708A1 (BOEHRINGER INGELHEIM INTERNATIONAL GMBH, priority 2007, published 2010).

What is called EC50 is the concentration at which the effect is half-maximal.

The structures appear in SMILES notation.

In the first test the target is T1, human CB2R (Homo sapiens, UniProt P34972).
T1 construct: host or cells: CHO cells
T1 sequence (P34972 whole entry): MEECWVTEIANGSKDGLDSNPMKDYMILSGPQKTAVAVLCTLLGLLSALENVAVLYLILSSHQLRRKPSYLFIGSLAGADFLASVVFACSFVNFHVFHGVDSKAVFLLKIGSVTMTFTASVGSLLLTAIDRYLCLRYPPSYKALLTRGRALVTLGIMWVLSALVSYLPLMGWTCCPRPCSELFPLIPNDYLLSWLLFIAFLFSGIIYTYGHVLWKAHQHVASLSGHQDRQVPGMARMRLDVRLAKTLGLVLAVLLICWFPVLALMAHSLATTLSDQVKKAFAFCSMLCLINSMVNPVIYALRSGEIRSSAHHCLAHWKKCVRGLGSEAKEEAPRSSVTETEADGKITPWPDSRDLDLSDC
The test can be described thus: CB2R mediated modulation of cAMP synthesis. It is filed as cell-based.
Conditions: not given
The protocol: B. CB2R Mediated Modulation of cAMP Synthesis:
Compounds of the invention were evaluated for their CB2 agonist or inverse agonistic activity in accordance with the following experimental method.
CHO cells expressing human CB2R (Euroscreen) were plated at a density of 5000 cells per well in 384 well plates and incubated overnight at 37° C. After removing the media, the cells were treated with test compounds diluted in stimulation buffer containing 1 mM IBMX, 0.25% BSA and 10 uM Forskolin. The assay was incubated for 30 minutes at 37° C. Cells were lysed and the cAMP concentration was measured using DiscoverX-XS cAMP kit, following the manufacturer's protocol. In this setting, agonists will decrease forskolin induced production of cAMP while inverse agonists will further increase forskolin induced production of cAMP. EC50 of agonists were calculated as follows. The maximal amount of cAMP produced by forskolin compared to the level of cAMP inhibited by 1 uM CP55940 is defined as 100%. […] Data was analyzed using a four-parameter logistic model. (Model 205 of XLfit 4.0).
Regarding `O=C(c1ccc(Cl)cc1)N1CCCN(c2nc3ccc(Cl)cc3s2)CC1` [Example 9, [4-(6-Chloro-benzothiazol-2-yl)-[1,4]diazepan-1-yl]-(4-chloro-phenyl)-methanone], a half-maximal effect (EC50) was put at 30 nM.

As for `CCc1cnc(N2CCCN(C(=O)Nc3cc(C(C)(C)C)on3)CC2)nc1` [Example 79, 4-(5-Ethyl-pyrimidin-2-yl)-[1,4]diazepane-1-carboxylic acid (5-tert-butyl-isoxazol-3-yl)-amide], the EC50 worked out at 6 nM.

For `Cc1nc(NC(=O)N2CCCN(c3ncc(C(F)(F)F)cc3Cl)CC2)sc1C(C)(C)C` [Example 14, 4-(3-Chloro-5-trifluoromethyl-pyridin-2-yl)-[1,4]diazepane-1-carboxylic acid (5-tert-butyl-4-methyl-thiazol-2-yl)-amide], the half-maximal effective concentration (EC50) was 0.94 nM.

With `CC(C)(C)c1ccc2oc(N3CCCN(C(=O)c4ccc(Cl)cc4)CC3)nc2c1` [Example 3, [4-(5-tert-Butyl-benzooxazol-2-yl)-[1,4]diazepan-1-yl]-(4-chloro-phenyl)-methanone], the midpoint of the response, the EC50, lay at 0.14 nM.

As to `CC(C)(C)c1cc(NC(=O)N2CCCN(c3ncc(Cl)cc3Cl)CC2)no1` [Example 21, 4-(3,5-Dichloro-pyridin-2-yl)-[1,4]diazepane-1-carboxylic acid (5-tert-butyl-isoxazol-3-yl)-amide], the concentration giving a half-maximal response (EC50) amounted to 44 nM.

`O=C(C1CCOCC1)N1CCCN(c2nc3cc(C(F)(F)F)ccc3s2)CC1` [Example 65] returned an EC50 of 35 nM.

Still in this test, the particulars now being: read-out: CB2 CAMP @EC50.
Turning to `O=C(C1CCOCC1)N1CCCN(c2ncc(CN3CCOCC3)s2)CC1` [Example 54, [4-(5-Morpholin-4-ylmethyl-thiazol-2-yl)-[1,4]diazepan-1-yl]-(tetrahydro-pyran-4-yl)-methanone], the EC50 was 14 nM.

Take `Cc1csc2ncnc(N3CCCN(C(=O)N4CCOCC4)CC3)c12` [Example 86, [4-(5-Methyl-thieno[2,3-d]pyrimidin-4-yl)-[1,4]diazepan-1-yl]-morpholin-4-yl-methanone]: the EC50 was found to be 45.2 nM.

With `Cc1ccc(Cl)c2sc(N3CCCN(C(=O)C4CCOCC4)CC3)nc12` [Example 43, [4-(7-Chloro-4-methyl-benzothiazol-2-yl)-[1,4]diazepan-1-yl]-(tetrahydro-pyran-4-yl)-methanone], the concentration giving a half-maximal response (EC50) worked out at 114 nM.

On to `O=C(c1ccc(Cl)cc1)N1CCCN(c2nc(-c3ccccc3)ns2)CC1` [Example 11, (4-Chloro-phenyl)-[4-(3-phenyl-[1,2,4]thiadiazol-5-yl)-[1,4]diazepan-1-yl]-methanone], for which the half-maximal effective concentration (EC50) is 5 nM.

For `CC(C)(C)c1ccc2oc(N3CCCN(C(=O)C4CCC(F)(F)CC4)CC3)nc2c1` [Example 4, [4-(5-tert-Butyl-benzooxazol-2-yl)-[1,4]diazepan-1-yl]-(4,4-difluoro-cyclohexyl)-methanone], the concentration giving a half-maximal response (EC50) was determined as 0.017 nM.

In the case of `O=C(C1CCC(F)(F)CC1)N1CCCN(c2nc3cc(C(F)(F)F)ccc3o2)CC1` [Example 67, (4,4-Difluoro-cyclohexyl)-[4-(5-trifluoromethyl-benzooxazol-2-yl)-[1,4]diazepan-1-yl]-methanone], the concentration for a half-maximal effect (EC50) amounted to 10 nM.

In the case of `O=C(C1CCOCC1)N1CCCN(c2nc3cc(-c4ccccc4)ccc3o2)CC1` [Example 71, [4-(5-Phenyl-benzooxazol-2-yl)-[1,4]diazepan-1-yl]-(tetrahydro-pyran-4-yl)-methanone], the EC50 came to 77 nM.

With `FC(F)(F)c1cnc(N2CCCN(c3nc4cc(C(F)(F)F)ccc4o3)CC2)c(Cl)c1` [Example 49, 2-[4-(3-Chloro-5-trifluoromethyl-pyridin-2-yl)-[1,4]diazepan-1-yl]-5-trifluoromethyl-benzooxazole], the EC50 worked out at 54 nM.

For the molecule `Cc1ccc2nc(N3CCCN(C(=O)C4CCOCC4)CC3)sc2c1` [Example 64, [4-(6-Methyl-benzothiazol-2-yl)-[1,4]diazepan-1-yl]-(tetrahydro-pyran-4-yl)-methanone], the EC50 amounted to 110 nM.

Turning to `O=C(C1CCC(O)CC1)N1CCCN(c2nc3cc(C(F)(F)F)ccc3o2)CC1` (stereo not shown) [Example 32, (4-Hydroxy-cyclohexyl)-[4-(5-trifluoromethyl-benzooxazol-2-yl)-[1,4]diazepan-1-yl]-methanone], the EC50 was found to be 19 nM.

`O=C(N1CCCN(c2nc3ccccc3[nH]2)CC1)N1CCS(=O)(=O)CC1` [Example 56, [4-(1H-Benzoimidazol-2-yl)-[1,4]diazepan-1-yl]-(1,1-dioxo-1λ^6-thiomorpholin-4-yl)-methanone]: the 50% effective concentration (EC50) is 327 nM.

As to `Cc1ccc(Cl)c2sc(N3CCCN(C(=O)N4CCOCC4)CC3)nc12` [Example 39, [4-(7-Chloro-4-methyl-benzothiazol-2-yl)-[1,4]diazepan-1-yl]-morpholin-4-yl-methanone], the EC50 came to 2 nM.

Regarding `Cc1c(Cl)ccc2sc(N3CCCN(C(=O)C4CCOCC4)CC3)nc12` [Example 48, [4-(5-Chloro-4-methyl-benzothiazol-2-yl)-[1,4]diazepan-1-yl]-(tetrahydro-pyran-4-yl)-methanone], the half-maximal effective concentration (EC50) worked out at 3 nM.

With `Cc1ccnc(N2CCCN(C(=O)Nc3cc(C(C)(C)C)on3)CC2)n1` [Example 81, 4-(4-Methyl-pyrimidin-2-yl)-[1,4]diazepane-1-carboxylic acid (5-tert-butyl-isoxazol-3-yl)-amide], the concentration for a half-maximal effect (EC50) worked out at 344 nM.

Regarding `Cc1cc(Cl)cc2sc(N3CCCN(C(=O)C4CCOCC4)CC3)nc12` [Example 42, [4-(6-Chloro-4-methyl-benzothiazol-2-yl)-[1,4]diazepan-1-yl]-(tetrahydro-pyran-4-yl)-methanone], the EC50 turned out to be 221 nM.

As for `CCC(C)c1cc(NC(=O)N2CCCN(c3ncc(C(F)(F)F)cc3Cl)CC2)n(C)n1` (stereo not shown) [Example 68, 4-(3-Chloro-5-trifluoromethyl-pyridin-2-yl)-[1,4]diazepane-1-carboxylic acid (5-sec-butyl-2-methyl-2H-pyrazol-3-yl)-amide], the EC50 amounted to 14 nM.

`Cc1ccc(C)c2sc(N3CCCN(C(=O)C4CCOCC4)CC3)nc12` [Example 46, [4-(4,7-Dimethyl-benzothiazol-2-yl)-[1,4]diazepan-1-yl]-(tetrahydro-pyran-4-yl)-methanone]: the half-maximal effective concentration (EC50) turned out to be 445 nM.

`O=C(C1CCOCC1)N1CCCN(c2nc3cc(C(F)(F)F)ccc3o2)CC1` [Example 5, (Tetrahydro-pyran-4-yl)-[4-(5-trifluoromethyl-benzooxazol-2-yl)-[1,4]diazepan-1-yl]-methanone]: the EC50 came out at 43 nM.

Regarding `O=C(C1CCOCC1)N1CCCN(c2nc(-c3ccccc3)cs2)CC1` [Example 53, [4-(4-Phenyl-thiazol-2-yl)-[1,4]diazepan-1-yl]-(tetrahydro-pyran-4-yl)-methanone], the EC50 amounted to 217 nM.

`O=C(N1CCOCC1)N1CCCN(c2nc3cc(Cl)ccc3o2)CC1` [Example 72, [4-(5-Chloro-benzooxazol-2-yl)-[1,4]diazepan-1-yl]-morpholin-4-yl-methanone]: the 50% effective concentration (EC50) amounted to 490 nM.

As for `Cc1c(Cl)ccc2sc(N3CCCN(C(=O)N4CCOCC4)CC3)nc12` [Example 38, [4-(5-Chloro-4-methyl-benzothiazol-2-yl)-[1,4]diazepan-1-yl]-morpholin-4-yl-methanone], the EC50 is 204 nM.

In the case of `O=C(C1CCOCC1)N1CCCN(c2nc3ccc(Cl)cc3o2)CC1` [Example 70, [4-(6-Chloro-benzooxazol-2-yl)-[1,4]diazepan-1-yl]-(tetrahydro-pyran-4-yl)-methanone], the half-maximal effective concentration (EC50) was determined as 180 nM.

For `Cn1nc(C(C)(C)C)cc1NC(=O)N1CCCN(c2ncc(Cl)cc2Cl)CC1` [Example 28, 4-(3,5-Dichloro-pyridin-2-yl)-[1,4]diazepane-1-carboxylic acid (5-tert-butyl-2-methyl-2H-pyrazol-3-yl)-amide], the EC50 came to 500 nM.

For `CC(C)(C)c1cc(NC(=O)N2CCCN(c3nccc(C(F)(F)F)n3)CC2)no1` [Example 23, 4-(4-Trifluoromethyl-pyrimidin-2-yl)-[1,4]diazepane-1-carboxylic acid (5-tert-butyl-isoxazol-3-yl)-amide], the 50% effective concentration (EC50) was 333 nM.

Take `N#Cc1cnc(N2CCCN(C(=O)C3CCOCC3)CC2)s1` [Example 34, 2-[4-(Tetrahydro-pyran-4-carbonyl)-[1,4]diazepan-1-yl]-thiazole-5-carbonitrile]: the EC50 was determined as 40 nM.

On to `Cc1csc(NC(=O)N2CCCN(c3ncc(C(F)(F)F)cc3Cl)CC2)n1` [Example 6, 4-(3-Chloro-5-trifluoromethyl-pyridin-2-yl)-[1,4]diazepane-1-carboxylic acid (4-methyl-thiazol-2-yl)-amide], for which the concentration giving a half-maximal response (EC50) was 30 nM.

`Cc1cc(C)c2sc(N3CCCN(C(=O)C4CCOCC4)CC3)nc2c1` [Example 47, [4-(5,7-Dimethyl-benzothiazol-2-yl)-[1,4]diazepan-1-yl]-(tetrahydro-pyran-4-yl)-methanone]: the 50% effective concentration (EC50) worked out at 53 nM.

For `CC(C)(C)SCCNC(=O)N1CCCN(c2ncc(C(F)(F)F)cc2Cl)CC1` [Example 15, 4-(3-Chloro-5-trifluoromethyl-pyridin-2-yl)-[1,4]diazepane-1-carboxylic acid (2-tert-butylsulfanyl-ethyl)-amide], the EC50 was found to be 21 nM.
